Here are results for eight compounds from PMC3967213, “Cyclic Marinopyrrole Derivatives as Disruptors of Mcl-1 and Bcl-xL Binding to Bim” (Marine Drugs, 2014).

“Also recorded” adds a separate entry of the source. Like-named read-outs stand apart in the source and are kept apart here.

The target in data set [1] is GST-Mcl-1 / biotinylated Bim BH3 peptide (Homo sapiens, UniProt Q07820). The data set is described as follows: ELISA, disruption of Mcl-1 binding to Bim. The conditions noted are these: for fold potency relative to 1 against Mcl-1/Bim: compared with 1. As for the experimental part: (§1) ELISAs were performed using a similar procedure as previously described. Briefly, 40 nM of biotinylated Bim BH3 peptide (Biomatik, Wilmington, DE, USA) in SuperBlock blocking buffer (Thermo Scientific Pierce, Rockford, IL, USA) was incubated in high-binding capacity streptavidin-coated plates (Thermo Scientific Pierce, Rockford, IL, USA) for 2 h. Compounds were diluted in 120 µL of PBS containing 10 nM of GST-Mcl-1 or GST-Bcl-xL in 1.5-mL tubes for 15 min. Wells were washed with wash buffer (PBS containing 0.05% Tween-20) and then 100 µL of the compound/GST-protein mixture was transferred to the wells. The plates were incubated for 2 h, and then, the wells were washed with wash buffer. HRP-conjugated anti-GST antibody (Bethyl Laboratories, Montgomery, TX, USA) was diluted 1:2000 in SuperBlock, and 100 µL were transferred to each well. The plate was incubated for 1 h, and then, the wells were washed with wash buffer followed by PBS. One hundred microliters of SureBlue TMB Microwell Peroxidase Substrate (VWR International, Radnor, PA, USA) was added to each well, and the plates were developed for 5–10 min. One hundred microliters of 1 N HCl was added to each well to stop the reaction, and the absorbance was read at 450 nm using a µQuant plate reader (Bio-Tek Instruments, Winooski, VT, USA).

Data set [2] deals with Mcl-1, Bim and caspase 3 in MDA-MB-468 cells. The data set is described as follows: Western blotting after treatment of intact human breast cancer cells. The settings on record: 10 μM for 16 h. It counts as cell-based.
Data set [3] has as its target GST-Bcl-xL / biotinylated Bim BH3 peptide (Homo sapiens, UniProt Q07817). The experiment in a line: ELISA, disruption of Bcl-xL binding to Bim. The conditions noted are these: for fold potency relative to 1 against Bcl-xL/Bim: compared with 1; for IC50: 10 nM GST-Bcl-xL, 40 nM biotinylated Bim BH3 peptide, read-out: IC50 against Bcl-xL/Bim binding. As for the experimental part:
as §1

GST-Mcl-1 / biotinylated Bim BH3 peptide, sequence (Q07820 whole entry): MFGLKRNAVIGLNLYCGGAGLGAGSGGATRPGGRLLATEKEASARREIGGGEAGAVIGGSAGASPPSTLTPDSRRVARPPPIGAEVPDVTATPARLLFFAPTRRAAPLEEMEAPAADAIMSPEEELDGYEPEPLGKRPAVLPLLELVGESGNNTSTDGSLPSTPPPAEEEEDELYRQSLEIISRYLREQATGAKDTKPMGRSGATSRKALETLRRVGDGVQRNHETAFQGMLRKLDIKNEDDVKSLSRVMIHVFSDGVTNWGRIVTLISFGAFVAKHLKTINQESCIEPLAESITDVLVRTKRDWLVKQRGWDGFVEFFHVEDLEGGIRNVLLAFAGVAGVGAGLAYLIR
GST-Bcl-xL / biotinylated Bim BH3 peptide, sequence (Q07817 whole entry): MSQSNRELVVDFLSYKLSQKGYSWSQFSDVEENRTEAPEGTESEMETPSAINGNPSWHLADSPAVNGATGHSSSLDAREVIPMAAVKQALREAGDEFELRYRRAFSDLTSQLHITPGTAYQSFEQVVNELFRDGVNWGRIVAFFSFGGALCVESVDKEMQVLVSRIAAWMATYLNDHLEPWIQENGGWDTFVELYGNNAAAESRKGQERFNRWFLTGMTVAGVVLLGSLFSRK

For the compound `O=C(c1ccccc1O)c1[nH]c(Cl)c(Cl)c1-n1c(C(=O)c2ccccc2O)cc(Cl)c1Cl` (racemic) [Compound 1, (±)-marinopyrrole A, reference compound], the IC50 in data set [1] was 8.9 µM. Besides, in data set [2], the “cleavage of caspase 3” value is on record as “cleave caspase 3”; the “levels of Mcl-1 and Bim” value is on record as “able to decrease”.

`O=C1c2ccc(OS(=O)(=O)C(F)(F)F)cc2Oc2c(Cl)cc(C(=O)c3ccc(OS(=O)(=O)C(F)(F)F)cc3O)n2-c2c1[nH]c(Cl)c2Cl` [Compound 3, 3-Hydroxy-4-(2,3,7-trichloro-13-oxo-10-(((trifluoromethyl)sulfonyl)oxy)-1,13 dihydrobenzo[g]di-pyrrolo[2,1-b:3′,2′-d][1,3]oxazocine-5-carbonyl)phenyl trifluoromethanesulfonate]: the “fold potency relative to 1 against Mcl-1/Bim” value in data set [1] (ELISA) is recorded as “six”. In addition, in data set [3], the “fold potency relative to 1 against Bcl-xL/Bim” value was “seven-fold higher potency”.

Regarding `COC(=O)c1ccc(C(=O)c2cc(Cl)c3n2-c2c([nH]c(Cl)c2Cl)C(=O)c2ccc(C(=O)OC)cc2O3)c(O)c1` [Compound 4, Methyl-2,3,7-trichloro-5-(2-hydroxy-4-(methoxycarbonyl)benzoyl)-13-oxo-1,13-dihydrobenzo[g]-dipyrrolo[2,1-b:3′,2′-d][1,3]oxazocine-10-carboxylate], the “fold potency relative to 1 against Mcl-1/Bim” value in data set [1] (ELISA) is “two-fold more potent”. Further, the “fold potency relative to 1 against Bcl-xL/Bim” value in data set [3] is “seven-fold more potent”.

Turning to `COC(=O)c1ccc(C(=O)c2[nH]c(Cl)c(Cl)c2-n2c(C(=O)c3ccc(C(=O)OC)cc3O)cc(Cl)c2Cl)c(O)c1` [Compound 4a, dimethyl-4,4′-(4,4′,5,5′-tetrachloro-1′H-[1,3′-bipyrrole]-2,2′-dicarbonyl)bis(3-hydroxybenzoate)], the “activity against Mcl-1/Bim (in words)” value in data set [1] (ELISA) was “showed activity”. Further, in data set [2], the “cleavage of caspase 3” value is on record as “cleavage of caspase 3”; the “levels of Mcl-1 and Bim” value is listed as “significant decrease”.

On to `CCOP(=O)(OCC)c1ccc(C(=O)c2cc(Cl)c3n2-c2c([nH]c(Cl)c2Cl)C(=O)c2ccc(P(=O)(OCC)OCC)cc2O3)c(O)c1` [Compound 5, 3-Hydroxy-4-(2,3,7-trichloro-13-oxo-10-(diethylphosphonyl)-1,13-dihydrobenzo[g]dipyrrolo[2,1-b:3′,2′-d][1,3]oxazocine-5-carbonyl)diethyl phosphonate], for which the IC50 is above 100 µM in data set [1] (ELISA, 10 nM GST-Mcl-1, 40 nM biotinylated Bim BH3 peptide, read-out: IC50 to disrupt the binding of Mcl-1 to Bim) and above 100 µM in data set [3].

Turning to `CCOP(=O)(OCC)c1ccc(C(=O)c2[nH]c(Cl)c(Cl)c2-n2c(C(=O)c3ccc(P(=O)(OCC)OCC)cc3O)cc(Cl)c2Cl)c(O)c1` [Compound 5a, tetraethyl((4,4′,5,5′-tetrachloro-1′H-[1,3′-bipyrrole]-2,2′-dicarbonyl)bis(3-hydroxy-4,1-phenylene))bis(phosphonate)], the “activity against Mcl-1/Bim (in words)” value in data set [1] (ELISA) is given as “showed activity”. Further, in data set [2], the “cleavage of caspase 3” value is on record as “little effect”; the “levels of Mcl-1 and Bim” value was “little effect”. Moreover, the IC50 in data set [3] is above 100 µM.

In turn, `O=C(O)c1ccc(C(=O)c2[nH]c(Cl)c(Cl)c2-n2c(C(=O)c3ccc(C(=O)O)cc3O)cc(Cl)c2Cl)c(O)c1` [Compound 7a, 4,4′-(4,4′,5,5′-Tetrachloro-1′H-[1,3′-bipyrrole]-2,2′-dicarbonyl)bis(3-hydroxybenzoic acid)] showed a melting point of 190.5 to 192 °C. In addition, the “activity against Mcl-1/Bim (in words)” value in data set [1] (ELISA) is given as “lower activity than 1; also recorded: less active”. For the same compound, in data set [2], the “cleavage of caspase 3” value is “little caspase 3 cleavage”; the “levels of Mcl-1 and Bim” value is “did not decrease”. Moreover, in data set [3], the “activity against Bcl-xL/Bim (in words)” value is reported as “little activity; also recorded: less active”.

`O=C(c1ccc(P(=O)(O)O)cc1O)c1[nH]c(Cl)c(Cl)c1-n1c(C(=O)c2ccc(P(=O)(O)O)cc2O)cc(Cl)c1Cl` [Compound 8a, ((4,4′,5,5′-Tetrachloro-1′H-[1,3′-bipyrrole]-2,2′-dicarbonyl)bis(3-hydroxy-4,1-phenylene))diphosphonic acid]: the “activity against Mcl-1/Bim (in words)” value in data set [1] (ELISA) was “slightly less potent than 1; also recorded: less active”. For the same compound, in data set [2], the “cleavage of caspase 3” value is “little effect”; the “levels of Mcl-1 and Bim” value is on record as “little effect”. Besides, the “activity against Bcl-xL/Bim (in words)” value in data set [3] is given as “less active”.
